Measured values as given in patent publication US20080075750A1, “METHODS FOR PRODUCING THREE-DIMENSIONAL TISSUE-ENGINEERED CARDIAC CONSTRUCTS AND USES REGARDING SAME” (The Nemours Foundation, priority 2001, published 2008).

Legend:
[1] = test system: Primary NNRCCs (neonatal rat cardiac cells), 2D culture dishes and 3D constructs; test: Spontaneous contractile (beat) frequency of cardiac cell cultures before and after exposure to adrenergic/cholinergic agents; assay type: cell-based; conditions: for Propranolol responders: responding cultures of all cultures; for Postproprandolol beat frequency: three minutes after pharmacological dose, responders, 37° C.; for decrease in beat frequency post propranolol: versus baseline of responders
Method: Primary NNRCCs in SFHM form spontaneously and rhythmically contracting cultures within the first twenty hours after plating in monolayer cultures. To directly assess contractility and the modulation of contractile activity by […], the effects of propranolol, which is a beta-blocker on the frequency of spontaneous contraction in 2D and 3D preparation were evaluated. 3D cardiac cell cultures were prepared in transparent Teflon® culture bags that were slowly rotated to quiescently suspend the cells and HFN-coated polystyrene beads. Cultures were observed on a 37° C. microscope stage and the spontaneous contractile frequency of the constructs was determined. Samples were then exposed to a pharmacological dose of propranolol without disturbing the field of view on the microscope stage. Three minutes later, the contractile frequency was reassessed.
As expected, both culture types were spontaneously contractile. In standard (2D) preparations entire culture wells beat in unison. In the 3D constructs, entire aggregates of cells in physical contact beat in unison. […]

[2] = test system: bioreactor cultured neonatal rat cardiac cells on microcarriers (BMP 2 function); test: Formation of tissue-like aggregates in bioreactor cardiac cultures with Noggin (BMP antagonist) in the media; assay type: cell-based
Method: 2 day old neonatal rat pups were halothane anesthetized and cardioectomitized. The isolated hearts were minced and subjected to about 16 hour digestion by about […] trypsin, followed by about […] collagenase II digestion and cell straining to completely separate individual cells. The cells were then counted on hemocytometer with trypan blue staining aid resuspended in modified serum-free cardiac media (SM3+) at a density of about 1×10^6 total cells/ml. Cells were then mixed with fibronectin-coated Nunclon plastic microcarriers at […] and infused into PTFE bags for bioreactor rotation, with the remainder plated onto fibronectin-coated six-well Nunclon plastic plates at a density of about 2×10^6 cells/well as a control population. Feeding was performed at about 24 hours post-inoculation to remove unattached cells, and about every 3 days thereafter. Samples were collected prior to culture start (Day 0) and at varying intervals thereafter. For the Noggin treatment protocol, about. 0.4 μg/ml Noggin (Pepro Tech, London, UK) in about 10 mM acetic acid was added to media just prior to inoculation and to media used for feeding, with control using untreated media.
Moreover, Noggin was used to assess the role of BMP2 in the formation of tissue-like aggregates in bioreactors. Noggin is a secreted factor which acts as an antagonist for members of the BMP family of proteins (i.e., in solution, Noggin will bind BMP 2 and prevent BMP 2 from binding to its receptor). Thus, adding an effective amount of Noggin to the culture media may suppress BMP 2 function. […] The control bioreactor cardiac cultures formed large tissue-like aggregates surrounding multiple microcarriers complete with substantial thick structure formation visible between the microcarriers.

CN1[C@@H]2CC[C@H]1C[C@@H](OC(=O)C(CO)c1ccccc1)C2 (some centres unmarked) [atropine]
alteration of baseline contractile frequency ([1]; cholinergic antagonist): did not result in an alteration of baseline contractile frequency

CC(C)NCC(O)COc1cccc2ccccc12 (centres unmarked) [Propranolol, propranolol]
Propranolol responders ([1]; 2D/culture dishes): (19 of 25) | Postproprandolol beat frequency ([1]; 2D/culture dishes): 130.86 (±10.23) | decrease in beat frequency post propranolol ([1]; 2D/culture dishes): 30% decrease | Propranolol responders ([1]; 3D/HARVs): (6 of 12) | Postproprandolol beat frequency ([1]; 3D/HARVs): 34.59 (±3.842) | decrease in beat frequency post propranolol ([1]; 3D/HARVs): 34% decrease | effect on beat frequency ([1]; both 3D and 2D conformations): decrease in beat frequency in a subset of cultures

B1: Noggin: secreted factor which acts as an antagonist for members of the BMP family of proteins (Pepro Tech) (protein, UniProt Q13253 28-232, looked up)
Noggin: QHYLHIRPAPSDNLPLVDLIEHPDPIFDPKEKDLNETLLRSLLGGHYDPGFMATSPPEDRPGGGGGAAGGAEDLAELDQLLRQRPSGAMPSEIKGLEFSEGLAQGKKQRLSKKLRRKLQMWLWSQTFCPVLYAWNDLGSRFWPRYVKVGSCFSKRSCSVPEGMVCKPSKSVHLTVLRWRCQRRGGQRCGWIPIQYPIISECKCSC
aggregate size (connected microcarrier supports) ([2]; Noggin treated bioreactor culture, 6 days post inoculation): 2-3 microcarrier supports | contractile activity / myocyte interaction ([2]; Noggin-treated cultures, about 8 hour post-inoculation): no disruption in myocyte interaction or contractile apparatus reformation | tissue-like aggregate formation ([2]; about 0.4 μg/ml Noggin in media, bioreactor culture): only small thin aggregates
